Measured values from BindingDB's records for doi:10.1021/jm061414r (The Scripps Research Institute, 2007).

molecular target: T1, Carboxylic ester hydrolase (Homo sapiens, UniProt Q8TDZ9); assay: TGH Inhibition Assay
T1 sequence (Q8TDZ9 whole entry): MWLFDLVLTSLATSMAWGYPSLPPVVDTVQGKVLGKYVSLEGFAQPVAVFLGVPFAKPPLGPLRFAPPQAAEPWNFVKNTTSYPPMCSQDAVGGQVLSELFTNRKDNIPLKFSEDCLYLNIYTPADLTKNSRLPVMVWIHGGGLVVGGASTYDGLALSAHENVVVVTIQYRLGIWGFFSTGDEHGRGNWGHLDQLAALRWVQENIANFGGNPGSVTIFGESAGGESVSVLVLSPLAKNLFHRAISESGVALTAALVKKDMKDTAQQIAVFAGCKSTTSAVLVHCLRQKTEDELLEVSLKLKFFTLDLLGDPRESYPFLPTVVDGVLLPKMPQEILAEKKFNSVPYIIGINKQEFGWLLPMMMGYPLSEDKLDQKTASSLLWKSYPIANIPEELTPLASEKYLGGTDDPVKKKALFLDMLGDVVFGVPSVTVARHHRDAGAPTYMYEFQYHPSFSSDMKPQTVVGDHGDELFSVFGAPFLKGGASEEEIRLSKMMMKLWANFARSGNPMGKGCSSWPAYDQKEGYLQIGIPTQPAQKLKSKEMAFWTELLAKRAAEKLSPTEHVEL
Procedure: Inhibition of TGH activity was assayed using COS-7 expressed TGH and the chromogenic substrate. IC50 values were determined from the inhibition observed at 7 different inhibitor concentrations (three trials each).

IC50 [nM]	SMILES
500	O=C(CCCCCCc1cccc(Cl)c1Cl)c1ncc(-c2ccccn2)o1 [7-(2,3-dichlorophenyl)-1-[5-(pyridin-2-yl)-1,3-oxazol-2-yl]heptan-1-one]
8000	O=C(CCc1ccc(OCc2ccccc2)cc1)c1ncc(-c2ccccn2)o1 [3-[4-(benzyloxy)phenyl]-1-[5-(pyridin-2-yl)-1,3-oxazol-2-yl]propan-1-one]
2000	O=C(CCc1ccc(COc2ccccc2)cc1)c1ncc(-c2ccccn2)o1
